Assays:
[1] = target: Cholinesterase (Homo sapiens, UniProt P06276)
Description: Inhibition of Butyrylcholinesterase

[2] = target: T1, Acetylcholinesterase (Homo sapiens, UniProt P22303)
Description: Inhibition of Acetylcholinesterase

[3] = target: T1, Acetylcholinesterase; remark: listed apart in the source
Description: Competitive inhibition constant for Acetylcholinesterase

T1 sequence (P22303 whole entry): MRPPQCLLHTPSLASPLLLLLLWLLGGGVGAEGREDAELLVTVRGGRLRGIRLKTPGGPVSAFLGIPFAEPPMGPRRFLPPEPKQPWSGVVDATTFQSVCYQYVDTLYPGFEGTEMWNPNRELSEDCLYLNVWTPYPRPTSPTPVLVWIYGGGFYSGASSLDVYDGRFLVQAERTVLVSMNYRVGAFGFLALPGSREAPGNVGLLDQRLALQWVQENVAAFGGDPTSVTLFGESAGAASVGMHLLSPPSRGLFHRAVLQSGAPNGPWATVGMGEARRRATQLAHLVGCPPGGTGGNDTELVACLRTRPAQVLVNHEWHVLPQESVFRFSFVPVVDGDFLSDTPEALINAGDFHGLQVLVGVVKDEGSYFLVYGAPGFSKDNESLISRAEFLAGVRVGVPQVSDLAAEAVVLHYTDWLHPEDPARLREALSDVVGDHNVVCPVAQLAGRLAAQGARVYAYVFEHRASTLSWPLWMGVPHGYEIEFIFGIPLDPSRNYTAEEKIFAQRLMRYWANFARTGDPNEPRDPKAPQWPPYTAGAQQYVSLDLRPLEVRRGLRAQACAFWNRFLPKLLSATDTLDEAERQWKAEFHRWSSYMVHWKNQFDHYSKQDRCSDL
Sequence of Cholinesterase (P06276 whole entry): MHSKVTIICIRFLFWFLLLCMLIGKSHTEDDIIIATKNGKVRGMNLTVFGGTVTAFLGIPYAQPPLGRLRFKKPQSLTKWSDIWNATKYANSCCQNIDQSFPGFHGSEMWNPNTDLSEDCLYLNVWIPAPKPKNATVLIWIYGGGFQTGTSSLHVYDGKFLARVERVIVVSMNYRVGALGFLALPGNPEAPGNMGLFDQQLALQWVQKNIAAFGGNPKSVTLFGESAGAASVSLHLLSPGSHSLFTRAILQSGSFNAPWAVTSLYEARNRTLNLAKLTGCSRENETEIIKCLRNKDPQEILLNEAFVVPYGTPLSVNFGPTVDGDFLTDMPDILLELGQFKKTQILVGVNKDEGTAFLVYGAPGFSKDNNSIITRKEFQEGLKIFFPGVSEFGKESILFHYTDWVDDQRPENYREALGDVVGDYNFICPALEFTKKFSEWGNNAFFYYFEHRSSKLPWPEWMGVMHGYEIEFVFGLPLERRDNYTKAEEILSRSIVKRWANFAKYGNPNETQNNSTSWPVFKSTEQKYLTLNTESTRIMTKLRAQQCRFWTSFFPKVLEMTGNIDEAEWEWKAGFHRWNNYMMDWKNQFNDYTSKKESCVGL

| Compound | IC50 [1] | IC50 [2] | Ki [3] |
| --- | --- | --- | --- |
| Nc1ccc2c(c1)c(-c1ccccc1)[n+](CCCNCCCNCCCNc1c3c(nc4ccccc14)CCCC3)c1cc(N)ccc21 | 0.0637 µM | 0.00155 µM | 0.00149 µM |
| COc1ccccc1CN(C)CCCN(C)CCCNCCC[n+]1c(-c2ccccc2)c2cc(N)ccc2c2ccc(N)cc21 | 2.19 µM | 0.952 µM | 0.894 µM |
| COc1ccccc1CN(C)CCCCCC(=O)N(C)CCCCCCCCN(C)C(=O)CCCCCN(C)Cc1ccccc1OC [CAPROCTAMINE] | 11.6 µM |  |  |

Reference: ChEMBL document CHEMBL1145289, “Propidium-based polyamine ligands as potent inhibitors of acetylcholinesterase and acetylcholinesterase-induced amyloid-beta aggregation” (J Med Chem, 2005)
